This is an account of results in patent US5225543A, “Receptors method for purification of G protein-linked” (priority 1991, dated 1993).

For test [1], the target named is T1, SRIF receptor (GH4 C1 membranes) (Rattus norvegicus, UniProt P30680).
T1 construct: GH4 C1 rat pituitary tumor cells; endogenous in cells; host or cells: GH4 C1 rat pituitary tumor cells (isolated membranes)
Put plainly: Competitive radioligand binding vs [^125 I]Tyr11-S14 on GH4 C1 membranes (FIG. 4). As to conditions: vs [^125 I]Tyr11-S14; 20 ug GH4 C1 membrane protein, 100,000 cpm (FIG. 4B).
Procedure: Membrane Isolation--1-8 liter batches of cells at densities of 6-10×10^5 cells/ml are pelleted in conical bottom glass centrifuge bottles (600 or 800 ml; Bellco) at 1,000× g for 5 min. The supernatants are carefully poured off and the cells are resuspended in ice cold homogenization medium (1 mM Na-bicarbonate at pH 7.6, 1 mM EDTA and 1 mM EGTA) containing 0.7% (vol/vol) of the "100×4pase" protease inhibitor cocktail (see below). Twenty ml of homogenization medium is used for every liter of suspension culture. After 5 min. on ice, the hypotonically swollen cells are homogenized with 10 strokes of a tight fitting Dounce homogenizer (Kontes, type A pestle). The homogenate is centrifuged at 1,000× g for 10 min. and the supernatant is removed and kept on ice. The 1,000× g pellet containing residual intact cells, nuclei and DNA is washed by gently homogenizing with 4 strokes with a type B pestle in one half the original volume of homogenization medium and recentrifuging for 10 min. at 1,000× g. The final 1,000× g pellet consists mostly of DNA and is discarded. The 1,000× g supernatants are combined and centrifuged at 20,000× g for 30 min. The 20,000× g pellet is washed twice in 25 mM Tris (pH 7.4), with centrifugation for 25 min. at 20,000 2 g. Final membrane pellets are resuspended in 25 mM Tris buffer to concentrations of 4-10 mg membrane protein/ml. Then the 100× 4pase protease inhibitor cocktails are added to 1% of final volume and aliquots are frozen on dry ice. Membranes are stored at -90° C. until needed. Membrane protein is assayed with the Bradford dye binding assay (Bio-Rad).
Standard Binding Assays--Binding assays are done in a binding buffer containing 50 mM HEPES (pH 7.4), 0.5% BSA and 5 mM MgCl2. The standard assay for [^125 I]SRIF analog binding to GH4 CL membranes, done in 96 well microtiter plates (Dynatech Immulon II Removawell plates), is carried out as follows: 1. Radioligand is diluted in binding buffer+PMSF/Baci to the desired cpm per vol. of 50 μl and then 50 μl aliquots are added to the wells. For non-specific binding samples, 5 μl of 40 μM cold S14 is also added per well. […] Binding is initiated by adding 150 μl per well of membrane diluted to the desired concentration (10-30 ug membrane protein/well) in binding buffer+PMSF/Baci. Plates are then covered with Linbro mylar plate sealers (Flow Labs) and placed on a Dynatech Microshaker II and binding is allowed to proceed at room temperature for 1-2 hours. Binding is stopped by centrifuging the plate for 15 minutes at 2,000×g. The supernatants are dumped off and membrane pellets washed once by addition of 200 μl of ice cold binding buffer, brief shaking and recentrifugation. Finally the individual wells are placed in 12×75 mm tubes and counted in an LKB Gammamaster counter (78% efficiency). […]

In the next test the target is T2, streptavidin (Streptomyces avidinii, UniProt P22629).
T2 construct: purchased Pierce Chemical Co
T2 sequence (P22629 25-183): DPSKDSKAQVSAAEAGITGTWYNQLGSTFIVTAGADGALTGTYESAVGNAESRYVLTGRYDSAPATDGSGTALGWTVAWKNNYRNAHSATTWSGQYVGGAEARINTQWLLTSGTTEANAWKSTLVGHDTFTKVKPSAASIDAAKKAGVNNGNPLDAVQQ
Put plainly: Tracing of SRIF R:L complex with [^125 I]Bio-S28 during purification: binding to immobilized streptavidin (Table 4). The method, then: 3. Adsorption of solubilized R:L complex to streptavidin. Immobilized streptavidin (streptavidin cross-linked to 6% beaded agarose, Pierce Chemical Co.; "SA-agarose") is washed in solubilization buffer and added to the solubilized membranes as 1/30 of the final volume. This mixture is incubated with constant stirring by end-over-end rotation for 4-5 hours at 4°-10° C. Then the mixture is applied to a column and the non-bound material is washed through. Binding of radioligand to SA-agarose is determined by comparing cpm in the 100,000×g supernatant with that in the column effluent after adsorption to SA-agarose. Finally, the column is washed with 12-15 column volumes of solubilization buffer+0.15% deoxycholate:lysolecithin+1/500 (vol/vol) 100×4pase.
(§1) A preparation of SRIF receptor is purified from 17 mg GH4 C1 pituitary cell membranes as described in "Methods: Receptor Purification". Some important features of this experiment are as follows: Two 17 mg samples of membranes are used. Both are incubated with 10^-8 M Bio-S28. However, one sample also receives 10^-5 M non-biotinyl S14 for 23 minutes before addition of any Bio-S28. This serves to block binding of Bio-S28 and creates a control to show non-specific binding of proteins to the streptavidin column. Also, each sample received 1.5×10^8 cpm of [^125 I]Bio-S28 as a tracer. This is added 2-3 minutes before the addition of cold Bio-S28. After a 1-hour binding step, the membranes are washed in binding buffer without BSA and solubilized in solubilization buffer containing 0.15% deoxycholate:lysolecithin and 0.2 mM MgCl2. Each 100,000×g supernatant (17 ml) is incubated with 0.6 ml of streptavidin-agarose for 4 hours at 4°-10° C. The SA-agarose is transferred to a 0.7 cm diameter column, washed and eluted with EDTA/EGTA/GTP-gamma-S as described ("Methods: Receptor Purification").
(§2) Radioligand is followed through the procedure to estimate solubilization of R:L complex and % initial binding of R:L complex to immobilized streptavidin.

For test [2], the target named is T1, SRIF receptor (GH4 C1 membranes). Description: Tracing of SRIF R:L complex with [^125 I]Bio-S28 during purification: membrane binding and solubilization (Table 4). The method, then:
1. Binding of biotinyl-SRIF to GH4 C1 membranes. The binding step is carried out as described in Section 4 of "Receptor Binding Methods". Incubations are for 1 hour at room temperature. In the standard purification protocol, the binding incubations contain 10 nM […]/[^125 I]Bio-S28 is added as a tracer at levels of 5,000-100,000 cpm per mg of membrane protein. Control incubations contain 10 uM cold S14 to saturate the receptor with non-biotinylated ligand.
2. Solubilization of receptor:ligand complex. This is done as described ("Membrane Solubilization"), with 0.15% deoxycholate:lysolecithin in solubilization buffer containing 0.2 mM MgCl2, to obtain 100,000×g supernatants containing solubilized R:L complex.
as §1, §2

Test [3] has the same target. Description: Purification method as receptor assay: binding of biotinyl-S28 to GH4 C1 membranes (FIG. 10). The note with it: 10 nM B28 in binding step. The method, then: Soluble material is adsorbed to streptavidin-Sepharose for 4 hours and eluted with 100 uM GTP-gamma-S+100 uM EDTA+100 uM EGTA. Then the GTP-gamma-S eluates are incubated overnight with immobilized wheat germ agglutinin (to adsorb glycoproteins, including the receptor).
The WGA-agarose pellets are washed and then boiled in SDS polyacrylamide gel sample buffer (to melt the agarose and solubilize proteins). […] The proteins not bound to WGA are processed separately and also separated by SDS-PAGE (FIG. 10C).

Where [4] appears, read: 10^-8 M Bio-S28 + 10^-5 M S14 (NSB).
Where [5] appears, read: 10^-8 M Bio-S28, [^125 I]Bio-S28 tracer, 4 hours.
[6] abbreviates: 10^-8 M Bio-S28, [^125 I]Bio-S28 tracer.

T1 sequence (P30680 whole entry): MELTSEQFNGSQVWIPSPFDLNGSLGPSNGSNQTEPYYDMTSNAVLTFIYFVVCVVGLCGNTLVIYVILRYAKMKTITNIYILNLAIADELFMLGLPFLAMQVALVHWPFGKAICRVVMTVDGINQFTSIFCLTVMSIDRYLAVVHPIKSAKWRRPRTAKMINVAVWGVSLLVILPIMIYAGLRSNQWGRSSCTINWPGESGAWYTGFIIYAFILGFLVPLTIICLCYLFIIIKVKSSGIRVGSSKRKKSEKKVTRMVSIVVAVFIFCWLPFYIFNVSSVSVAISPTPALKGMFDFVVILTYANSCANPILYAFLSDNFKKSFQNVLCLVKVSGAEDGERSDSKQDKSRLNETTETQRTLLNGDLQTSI

“Biotinyl-NH-(Leu8, D-Trp22, Tyr25)SRIF28 [Bio-S28]”: the IC50 in test [1] was 300 pM. In addition, on streptavidin (setting [4]), the “Solubilized CPM non-bound to streptavidin (%) (NSB)” value is recorded as 15% and the “Solubilized CPM non-bound to streptavidin (NSB)” value is 1,054 CPM. Moreover, on streptavidin (setting [5]), the “Solubilized CPM non-bound to streptavidin” value is given as 14,960 CPM and the “Solubilized CPM non-bound to streptavidin (%)” value turned out to be 28%. In test [2] (setting [4]), the “CPM initially bound to membranes (NSB)” value is on record as 9,316 CPM, the “CPM solubilized by deoxycholate:lysolecithin (%) (NSB)” value turned out to be 73% and the “CPM solubilized by deoxycholate:lysolecithin (NSB)” value is 6,834 CPM. In test [2] (setting [6]), the “CPM initially bound to membranes” value is 59,132 CPM, the “CPM solubilized by deoxycholate:lysolecithin” value is listed as 54,094 CPM and the “CPM solubilized by deoxycholate:lysolecithin (%)” value was 91%. For the same substance, the “total specific binding at or near saturation” value in test [3] was 1.8 pmol.

What is called IC50 is the concentration needed to halve the response being measured. Low values mean greater potency, high ones weaker potency.
